Test results as given in patent US9040717B2, “Pyrazole-amide compounds and pharmaceutical use thereof” (JAPAN TOBACCO INC., priority 2013, dated 2015).

Target: hERG (Homo sapiens (Human), UniProt Q12809)
Test: hERG whole cell patch clamp test
Assay type: cell-based
Details: human, hERG-transfected HEK293 cells, pH 7.4; whole cell patch clamp
Procedure: Using human ether-a-go-go related gene (hERG)-transfected HEK293 cells (Cytomyx Limited), an influence on hERG current was examined according to the whole cell patch clamp technique. The hERG-transfected HEK293 cells were passaged using a CO2 incubator (BNA-111, TABAI ESPEC CORP.) under the set conditions of 37° C., 5% CO2, saturated humidity. Culture containers used were Collagen Type I Coated 75 cm^2 flask (4123-010, AGC TECHNO GLASS CO., Ltd.) and Collagen Type I Coated 35 mm culture dish (4000-010, AGC TECHNO GLASS CO., Ltd.). The culture medium used was E-MEM (Eagle Minimum Essential Medium (Earle's Salts, Nikken biomedical laboratory) added with 10% FCS (Fetal calf serum, BioWest, L.L.C.) and 1% MEM Non-Essential Amino Acids Solution (NEAA, Invitrogen Corporation). Geneticin for the selection of hERG gene expressing cells was added thereto to a concentration of 400 μg/mL. As the cells for the measurement, 3×10^4 hERG-transfected HEK293 cells were plated on a 35 mm culture dish 4 to 7 days before measurement of the hERG current. The culture dish produced for the measurement contained the above-mentioned culture medium without geneticin (Invitrogen Corporation).
The highest evaluation concentration of each compound was determined from the highest concentration at which precipitation was not found in the standard extracellular fluid (NaCl: 140 mmol/L, KCl: 2.5 mmol/L, MgCl2:2 mmol/L, CaCl2: 2 mmol/L, HEPES: 10 mmol/L, glucose: 10 mmol/L (adjusted to pH 7.4 with Tris-base)). As the application method, each solution to be applied was ejected from a Y-tube having a tip diameter of about 0.25 mm, which was adjacent (about 2 mm) to the cells, and applied to the cells. The ejection rate was about 0.4 mL/min.
The experiment was performed at room temperature under a phase contrast microscope. The 35 mm culture dish plated with the cells was set on a measurement apparatus, and the standard extracellular fluid was continuously applied to the cells from the Y-tube. A glass electrode for the measurement was filled with an intracellular fluid (Potassium Gluconate: 130 mmol/L, KCl: 20 mmol/L, MgCl2: 1 mmol/L, ATP-Mg: 5 mmol/L, EGTA: 3.5 mmol/L, HEPES: 10 mmol/L (adjusted to pH 7.2 with Tris-base)). A conventional whole cell patch clamp method was applied to the cells, and the maintenance electric potential was set to −80 mV. Under a fixed electric potential, the whole cell current was amplified by an amplifier for patch clamp (AXOPATCH-200B, Axon Instruments, Inc.), and the data was loaded into a computer (IMC-P642400, Intermedical Co., Ltd.) using a data acquisition analysis software (pCLAMP 9.2, Axon Instruments, Inc.).
The measurement of the hERG current was performed in the following two steps. In both cases, the hERG current was initiated by giving a command potential (maintenance electric potential −80 mV, prepulse +20 mV, 1.5 sec, test-pulse −50 mV, 1.5 sec).
Step (1): The above-mentioned command potential was given at 0.1 Hz for 2 min.
Step (2): The above-mentioned command potential was subjected to P/3 subtraction of pCLAMP 9.2 to remove leak current. This was repeated three times and an average thereof was taken as hERG current.
Subsequent to step (1), Step (2) was performed (about 3 min), and the maximum tail current obtained by applying a test-pulse to the hERG current obtained by the method of step (2) was taken as hERG current value. Hereafter, the operations of (1) and (2) were alternately repeated until completion of the experiment and the hERG current value was measured.
Stable hERG current value was recorded three times (about 10 min), and the standard extracellular fluid was instantaneously exchanged with each application fluid. The hERG current value was measured three times (about 10 min) in the same manner during perfusion of the application fluid, and the current value obtained by the 3rd measurement was taken as hERG current value after perfusion of the application fluid. […]

Sequence of hERG (Q12809 whole entry): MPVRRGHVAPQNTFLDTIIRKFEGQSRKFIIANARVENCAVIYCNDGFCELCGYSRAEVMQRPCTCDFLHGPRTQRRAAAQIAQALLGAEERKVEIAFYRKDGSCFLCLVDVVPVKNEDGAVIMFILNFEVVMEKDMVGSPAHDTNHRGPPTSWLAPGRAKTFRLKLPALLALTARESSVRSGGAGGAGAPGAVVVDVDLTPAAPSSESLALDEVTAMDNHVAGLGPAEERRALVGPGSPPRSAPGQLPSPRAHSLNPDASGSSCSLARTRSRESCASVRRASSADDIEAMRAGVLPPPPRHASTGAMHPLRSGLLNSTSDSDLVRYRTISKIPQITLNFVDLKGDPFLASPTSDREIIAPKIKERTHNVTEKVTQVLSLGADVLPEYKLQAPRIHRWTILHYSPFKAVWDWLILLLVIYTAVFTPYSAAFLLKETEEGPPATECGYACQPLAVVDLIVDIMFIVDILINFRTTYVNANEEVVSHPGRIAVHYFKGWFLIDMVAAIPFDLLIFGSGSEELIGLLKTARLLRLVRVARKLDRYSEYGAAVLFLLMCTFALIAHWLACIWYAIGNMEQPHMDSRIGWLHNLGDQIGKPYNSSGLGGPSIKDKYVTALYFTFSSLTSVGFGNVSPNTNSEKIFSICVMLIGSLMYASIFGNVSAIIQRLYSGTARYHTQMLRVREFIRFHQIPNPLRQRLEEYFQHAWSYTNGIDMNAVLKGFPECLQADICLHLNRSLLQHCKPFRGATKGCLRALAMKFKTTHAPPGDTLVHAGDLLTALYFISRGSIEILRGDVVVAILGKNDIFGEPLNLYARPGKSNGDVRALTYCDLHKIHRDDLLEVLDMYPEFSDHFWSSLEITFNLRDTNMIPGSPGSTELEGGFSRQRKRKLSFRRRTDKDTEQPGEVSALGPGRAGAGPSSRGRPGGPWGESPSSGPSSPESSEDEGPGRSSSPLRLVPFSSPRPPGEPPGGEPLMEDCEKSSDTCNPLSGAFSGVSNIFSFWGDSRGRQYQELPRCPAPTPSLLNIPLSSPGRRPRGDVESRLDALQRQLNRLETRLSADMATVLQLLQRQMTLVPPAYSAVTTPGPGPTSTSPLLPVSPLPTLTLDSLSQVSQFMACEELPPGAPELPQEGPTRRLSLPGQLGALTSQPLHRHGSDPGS

Question: How did the IC50 at 10 min turn out when `NC(=O)Cn1cc(-c2cc(OCCC34CC5CC(CC(O)(C5)C3)C4)cc3c2-c2ccccc2[C@]3(O)C(F)(F)F)cn1` [Compound (A), 2-(4-{(9R)-9-Hydroxy-2-[2-(3-hydroxyadamantan-1-yl)ethoxy]-9-(trifluoromethyl)-9H-fluoren-4-yl}-1H-pyrazol-1-yl)acetamide] was run?
Answer: Its IC50 at 10 min is over 10 µM.
